According to publication PMC11285769, “A pan-respiratory antiviral chemotype targeting a transient host multi-protein complex” (Open Biology, 2024):
Entries after “also recorded” stand apart in the source; their conditions may differ. Where two headings read alike, the source gives them in different places.

Key:
BoCoV BRCV-OK-0514-2 = test: microbe, parasite or virus in culture; format: cell-based, bovine coronavirus; conditions: Betacoronavirus 1
[1] = system: FLUV nucleoprotein capsid assembly; format: biochemical, influenza (FLUV)
[2] = system: porcine epidemic diarrhoea virus (PEDV); test: PEDV pig study; format: in vivo; conditions: newborn pigs infected with PEDV, 4 mg kg^−1 intramuscular, relative to control
Experimental: 18 litters comprised of 91 individuals of newborn (2–4 days old) crossbred pigs weighing 3 kg were randomized to control (vehicle) or treatment groups. Animals were infected with 1 × 10^5 PFU of PEDV administered orally. Vehicle or drug was administered intramuscular at 4 mg kg^−1 immediately after challenge and again 24 h post-infection. Compound efficacy was determined by survivability. Endpoint of study was 6 days post-infection.

HRV-16 = test: HRV assay in H1-HeLa cells by TCID50; format: cell-based, human rhinovirus 16; conditions: Rhinovirus A
FLUV A/WSN/33 = test: microbe, parasite or virus in culture; format: cell-based, influenza A/WSN/33; conditions: Influenza A virus, MDCK; for IC50: read-out: IC50 (figure 2a)
MHV-68 = test: microbe, parasite or virus in culture; conditions: Murine herpesvirus, BHK-21
bovine coronavirus = test: microbe, parasite or virus in culture; format: cell-based; conditions: Betacoronavirus 1, read-out: PAV-431 EC50
[3] = system: human cytomegalovirus strain AD69; test: microbe, parasite or virus in culture; format: cell-based; conditions: Human betaherpesvirus 5, H1-HeLa, read-out: PAV-431 EC50
[4] = system: members of Orthomyxoviridae, Coronaviridae, Paramyxoviridae, Adenoviridae, Herpesviridae and Picornaviridae; test: microbe, parasite or virus in culture; format: cell-based; conditions: Orthoherpesviridae, read-out: EC50 across six respiratory viral families
[5] = system: respiratory synctial virus straine A-2; test: microbe, parasite or virus in culture; format: cell-based; conditions: human respiratory syncytial virus, HEp-2, read-out: PAV-431 EC50
[6] = system: adenovirus serotype 5 strain adenoid 65; test: microbe, parasite or virus in culture; format: cell-based; conditions: unidentified adenovirus, A549, read-out: PAV-431 EC50
hERG channel = hERG channel (Homo sapiens, UniProt Q12809); test: hERG channel inhibition
14-3-3 zeta (YWHAZ) = 14-3-3 zeta (YWHAZ) (Homo sapiens, UniProt P63104); format: binding
Nipah virus rNiV-ZsG = test: microbe, parasite or virus in culture; format: cell-based
in vivo = conditions: rat
p62/SQSTM1 = format: cell-based
SARS-CoV-2 WA1/2020 = test: microbe, parasite or virus in culture; format: cell-based
rabies virus CVS-11 = test: microbe, parasite or virus in culture; format: cell-based
5-HT2B = 5-HT2B (Homo sapiens, UniProt P41595); test: CEREP panel off-target: 5-HT2B; conditions: high concentrations
[7] = Pharmacokinetics, tissue uptake and safety in rats; conditions: 5 mg kg^−1 IP
[8] = system: swine influenza virus SIC/SK WT; test: microbe, parasite or virus in culture; format: cell-based; conditions: MDCK, read-out: PAV-431 EC50
[9] = rat, in vivo
RSV A-2 virus = test: RSV cotton rat study; format: in vivo; conditions: cotton rats, 2 mg kg^−1 IP twice daily, days −1 to 4, plaque assay
Experimental: Female cotton rats, approximately 5 weeks of age, were obtained from Envigo (formerly Harlan), ear-tagged for identification purposes, and allowed to acclimate for >1 week prior to study start. Animals were housed individually. Vehicle or drug (2 mg kg^−1) was administered by an intraperitoneal route twice daily on study days −1 through day 4. On day 0, animals were infected with 1 × 10^5 PFU of RSV A-2 virus originally obtained from ATCC (VR-1540), administered in a 50 µl volume by an intranasal route approximately 2 h after the morning treatment dose. Back titration of the viral stock and diluted inoculum was performed to confirm the titre of the RSV stock used for infection. All inoculations were performed while the animals were under the influence of inhalant anaesthesia. All animals were euthanized on day 5 and the lungs were processed for determination of RSV titres by plaque assay.

[10] = HRV16, HRV-16, MOI = 5, H1-HeLa cells, TCID50, read-out: EC50
[11] = read-out: EC50 against infectious FLUV

14-3-3 zeta (YWHAZ), sequence (P63104 whole entry): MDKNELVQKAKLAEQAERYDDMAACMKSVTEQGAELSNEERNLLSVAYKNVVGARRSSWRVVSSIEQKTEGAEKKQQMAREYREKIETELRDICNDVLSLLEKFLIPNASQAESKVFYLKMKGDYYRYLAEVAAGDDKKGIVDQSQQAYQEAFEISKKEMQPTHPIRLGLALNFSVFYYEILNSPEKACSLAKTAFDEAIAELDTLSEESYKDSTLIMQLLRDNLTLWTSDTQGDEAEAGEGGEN
hERG channel, sequence (Q12809 whole entry): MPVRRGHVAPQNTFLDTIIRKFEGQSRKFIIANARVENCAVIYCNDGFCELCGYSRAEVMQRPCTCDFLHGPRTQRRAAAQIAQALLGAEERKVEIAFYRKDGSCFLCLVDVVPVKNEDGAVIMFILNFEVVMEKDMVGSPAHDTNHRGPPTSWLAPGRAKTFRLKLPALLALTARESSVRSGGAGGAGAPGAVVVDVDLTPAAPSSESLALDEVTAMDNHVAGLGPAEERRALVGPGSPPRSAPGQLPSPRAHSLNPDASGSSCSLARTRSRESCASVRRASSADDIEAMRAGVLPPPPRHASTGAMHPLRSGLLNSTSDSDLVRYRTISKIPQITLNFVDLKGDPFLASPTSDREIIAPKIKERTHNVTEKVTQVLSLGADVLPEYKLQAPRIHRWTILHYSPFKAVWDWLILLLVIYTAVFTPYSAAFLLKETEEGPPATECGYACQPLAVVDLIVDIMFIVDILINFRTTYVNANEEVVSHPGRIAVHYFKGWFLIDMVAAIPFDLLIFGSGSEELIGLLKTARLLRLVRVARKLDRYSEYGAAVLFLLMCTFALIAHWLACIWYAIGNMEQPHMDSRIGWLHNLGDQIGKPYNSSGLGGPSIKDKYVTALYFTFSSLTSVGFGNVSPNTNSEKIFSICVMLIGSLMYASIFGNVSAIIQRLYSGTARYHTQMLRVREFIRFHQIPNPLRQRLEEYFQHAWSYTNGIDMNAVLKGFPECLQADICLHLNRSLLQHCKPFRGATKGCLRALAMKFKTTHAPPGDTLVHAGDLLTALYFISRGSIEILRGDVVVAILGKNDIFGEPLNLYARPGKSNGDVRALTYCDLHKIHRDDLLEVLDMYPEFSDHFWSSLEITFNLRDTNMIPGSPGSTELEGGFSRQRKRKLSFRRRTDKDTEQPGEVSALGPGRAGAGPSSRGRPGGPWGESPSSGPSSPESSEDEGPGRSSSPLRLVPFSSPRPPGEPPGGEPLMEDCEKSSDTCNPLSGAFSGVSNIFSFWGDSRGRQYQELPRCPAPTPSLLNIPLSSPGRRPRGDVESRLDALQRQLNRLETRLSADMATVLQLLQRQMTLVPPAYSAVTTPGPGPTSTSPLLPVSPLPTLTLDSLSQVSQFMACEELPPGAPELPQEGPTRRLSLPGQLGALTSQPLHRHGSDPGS
5-HT2B, sequence (P41595 whole entry, species assumed): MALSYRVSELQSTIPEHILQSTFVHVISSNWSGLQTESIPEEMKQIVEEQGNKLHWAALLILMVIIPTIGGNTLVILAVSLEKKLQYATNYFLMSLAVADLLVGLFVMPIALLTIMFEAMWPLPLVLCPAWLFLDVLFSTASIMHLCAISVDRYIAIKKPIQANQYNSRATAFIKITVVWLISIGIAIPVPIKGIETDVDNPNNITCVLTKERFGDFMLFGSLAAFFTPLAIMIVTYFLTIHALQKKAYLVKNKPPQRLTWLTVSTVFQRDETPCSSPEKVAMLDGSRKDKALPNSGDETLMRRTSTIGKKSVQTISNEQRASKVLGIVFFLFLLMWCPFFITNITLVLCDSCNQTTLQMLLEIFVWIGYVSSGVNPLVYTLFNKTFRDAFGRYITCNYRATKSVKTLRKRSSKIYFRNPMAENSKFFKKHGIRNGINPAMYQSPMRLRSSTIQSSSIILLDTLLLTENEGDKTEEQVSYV

Q: With `COc1cccc(CNC(=O)c2cc(C(C)(C)C)nn2C)c1OC` [PAV-773] as the compound, how does the EC50 (BoCoV BRCV-OK-0514-2) read?
A: < 1000 nM

Q: And the “assembly of FLUV nucleoprotein into a completed capsid” value [1]?
A: blocked assembly of FLUV nucleoprotein into a completed capsid in a dose-dependent manner

Q: And the likelihood of survival [2]?
A: significantly increased the likelihood of survival

Q: And the EC50 (HRV-16; [10])?
A: < 1000 nM

Q: What about the EC50 (FLUV A/WSN/33) of the same compound?
A: < 1000 nM

Q: And the EC50 (FLUV A/WSN/33; [11])?
A: 177 nM

Q: What about the IC50 (FLUV A/WSN/33) of the same compound?
A: 176 nM

Q: And the EC50 (MHV-68)?
A: < 1000 nM

Q: For `COc1c(CNC(=O)c2cc(C3CC3)nn2C)cccc1OC(F)(F)F` [PAV-431], which EC50 (bovine coronavirus) is on record?
A: 50 nM

Q: What about the EC50 [3] of the same compound?
A: 25 nM

Q: And the EC50 [4]?
A: ≤ 100 nM

Q: What about the EC50 [5] of the same compound?
A: < 25 nM

Q: What about the EC50 [6] of the same compound?
A: < 100 nM

Q: What about the hERG channel inhibition (hERG channel) of the same compound?
A: negative for hERG channel inhibition

Q: And the “14-3-3 binding from PAV-104 resin flowthrough” value (14-3-3 zeta (YWHAZ))?
A: a substantial amount of the 14-3-3 in the PAV-104 resin flowthrough bound to the PAV-431 resin

Q: What about the “activity against Nipah virus” value (Nipah virus rNiV-ZsG) of the same compound?
A: comparably potent

Q: And the EC50 (Nipah virus rNiV-ZsG; Henipavirus nipahense, read-out: PAV-431 EC50)?
A: ≤ 50 nM

Q: And the bioavailability (in vivo)?
A: 59%

Q: What about the “amount of p62 in eluate” value (p62/SQSTM1) of the same compound?
A: restored with PAV-431 treatment

Q: What about the “efficacy against SARS-CoV-2 WA 1/2020” value (SARS-CoV-2 WA1/2020) of the same compound?
A: significant efficacy

Q: What about the EC50 (SARS-CoV-2 WA1/2020; Severe acute respiratory syndrome coronavirus 2, Vero C1008, read-out: PAV-431 EC50) of the same compound?
A: 100 nM

Q: What about the “activity against rabies virus” value (rabies virus CVS-11) of the same compound?
A: did not show significant activity against rabies virus

Q: What about the EC50 (rabies virus CVS-11; Rabies virus CVS-11, read-out: PAV-431 EC50) of the same compound?
A: > 400 nM

Q: And the EC50 (HRV-16; HRV16, H1-HeLa, read-out: PAV-431 EC50)?
A: < 20 nM

Q: And the EC50 (FLUV A/WSN/33; read-out: PAV-431 EC50)?
A: 25 nM

Q: What about the “off-target effect at 5-HT2B” value (5-HT2B) of the same compound?
A: potential off-target effects at high concentrations could be relevant

Q: What about the safety of dose [7] of the same compound?
A: found to be safe

Q: And the EC50 [8]?
A: 25 nM

Q: And the clearance [9]?
A: quick clearing tendency

Q: And the distribution in brain [9]?
A: good distribution in brain and lungs

Q: What about the distribution in lungs [9] of the same compound?
A: good distribution in brain and lungs

Q: And the distribution in plasma [9]?
A: good distribution in plasma

Q: And the volume of distribution [9]?
A: better volume of distribution than PAV-104

Q: And the concentration in lungs ([9]; ip)?
A: 167 nM

Q: What about the concentration in plasma ([9]; ip) of the same compound?
A: 108 nM

Q: And the “levels obtained, oral route” value ([9]; po)?
A: too low to analyse the PK properties

Q: And the “RSV titre in lungs relative to vehicle” value (RSV A-2 virus)?
A: significant drop in viral titre; also recorded: small but statistically significant drop in RSV titre

Q: For `COc1cccc(CNC(=O)c2cc(C3CC3)nn2C)c1OC` [PAV-835], which EC50 (BoCoV BRCV-OK-0514-2) is on record?
A: < 1000 nM

Q: What about the “assembly of FLUV nucleoprotein into a completed capsid” value [1] of the same compound?
A: blocked assembly of FLUV nucleoprotein into a completed capsid in a dose-dependent manner

Q: And the likelihood of survival [2]?
A: significantly increased the likelihood of survival

Q: What about the EC50 (HRV-16; [10]) of the same compound?
A: < 1000 nM

Q: And the EC50 (FLUV A/WSN/33)?
A: < 1000 nM

Q: What about the EC50 (FLUV A/WSN/33; [11]) of the same compound?
A: 42 nM

Q: What about the IC50 (FLUV A/WSN/33) of the same compound?
A: 14.8 nM

Q: What about the EC50 (MHV-68) of the same compound?
A: < 1000 nM
